We go through 17 molecules from ChEMBL document CHEMBL3132849, “Bioactive prenylated phenyl derivatives derived from marine natural products: novel scaffolds for the design of BACE inhibitors” (Medchemcomm, 2014).

Values joined by “and” are separate entries in the source; they are usually repeats but may differ in a detail not shown here. Equal values may be shown once. Starred links: 1 amine or outer side, 2 acyl side, 3 side chain; linkers in the order of their positions; H or OH if unused. Non-standard residues stand in square brackets, D forms with d. Residues, ends and D or L forms follow the SMILES beside them. LeuΨ(S-CHOHCH2)Ala = CC(C)C[C@H](N[*:1])[C@@H](O)C[C@@H](C)C(=O)[*:2]

In data set [1] the test system is CHO. In words: Cytotoxicity in Cricetulus griseus CHO cells expressing human APP751 at 10 uM. The class given is cell-based. Conditions: chinese hamster.
Data set [2] has as its target Beta-secretase 1 (Homo sapiens) (UniProt P56817). Nature of the data set: Inhibition of recombinant human BACE1 assessed as fluorescence at 10 uM using FRET ASSAY KIT.
The target is the same in data set [3]. In words: Inhibition of recombinant human BACE1 assessed as fluorescence at 1 uM using FRET ASSAY KIT.
Data set [4] shares this target. Nature of the data set: Inhibition of BACE1 (unknown origin) expressed in human APP751 transfected CHO-7W cells assessed as inhibition of amyloid-beta (1 to 40) peptide production at 1 uM after 24 hrs by Abeta40 human ELISA Kit. It is filed as cell-based.
Data set [5] has the same target. Nature of the data set: Inhibition of BACE1 (unknown origin) expressed in human APP751 transfected CHO-7W cells assessed as inhibition of amyloid-beta (1 to 40) peptide production at 10 uM after 24 hrs by Abeta40 human ELISA Kit. The class given is cell-based. On the technique in general: An ELISA detects its analyte on a solid surface through an enzyme-linked reagent.

For data set [6] the target is unchanged. Nature of the data set: Inhibition of recombinant human BACE1 using fluorogenic peptide 4 as substrate at 10 uM by FRET assay.
Data set [7] has the same target. Nature of the data set: Inhibition of recombinant human BACE1 using fluorogenic peptide 4 as substrate at 1 uM by FRET assay.
A short description of data set [8]: Cytotoxicity in human SH-SY5Y cells at 1 to 10 uM. It is filed as cell-based.
The target in data set [9] is Beta-secretase 1 (Homo sapiens) (UniProt P56817). The conditions noted are these: CHO-7W, 3 uM.
Sequence of Beta-secretase 1 (Homo sapiens) (P56817 whole entry): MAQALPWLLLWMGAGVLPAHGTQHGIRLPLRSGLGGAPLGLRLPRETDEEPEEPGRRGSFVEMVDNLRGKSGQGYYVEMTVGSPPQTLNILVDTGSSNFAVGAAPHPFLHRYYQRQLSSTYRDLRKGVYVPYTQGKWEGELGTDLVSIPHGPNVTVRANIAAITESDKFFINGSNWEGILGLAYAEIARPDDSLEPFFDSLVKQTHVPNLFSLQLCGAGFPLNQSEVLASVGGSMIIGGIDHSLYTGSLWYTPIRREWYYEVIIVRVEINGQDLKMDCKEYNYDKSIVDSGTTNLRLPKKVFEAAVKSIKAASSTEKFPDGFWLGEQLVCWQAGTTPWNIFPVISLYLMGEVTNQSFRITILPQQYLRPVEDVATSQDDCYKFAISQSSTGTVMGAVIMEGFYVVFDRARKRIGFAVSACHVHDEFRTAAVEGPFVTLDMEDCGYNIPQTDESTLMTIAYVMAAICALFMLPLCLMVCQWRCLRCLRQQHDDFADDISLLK
Description: Inhibition of BACE1 in human APP751 transfected CHO-7W cells assessed as inhibition of amyloid-beta (1 to 40) peptide production at 3 uM after 24 hrs by Abeta40 human ELISA Kit

Regarding `COC(=O)c1ccc(OC)c(NC[C@H](O)[C@@H](Cc2ccccc2)NC/C=C(\C)CCC=C(C)C)c1`, the Activity result in data set [1] is on record as “Toxic”. The inhibition was determined as 56% in data set [2], 100% in data set [3] and 3% in data set [4].
Consider `CC(C)=CCC/C(C)=C/CC/C(C)=C/CN1C(=O)COc2ccc(C(=O)O)cc21`, for which the inhibition was found to be 0% in data set [5], 0% in data set [4], 17% in data set [6] and 100% in data set [7].
Consider `CCOC(=O)COc1ccc(C(=O)OC)cc1N(C/C=C(\C)CC/C=C(\C)CCC=C(C)C)CC(=O)OCC`, for which the inhibition came to 36% in [5], 14% in data set [4], 0% in data set [6] and 100% in data set [7].
As for `COc1ccccc1NC/C=C(\C)CC/C=C(\C)CCC=C(C)C`, the inhibition in data set [5] turned out to be 0%; in data set [6], 64%; in [7] it was 94%.
For the molecule `COc1ccc(C(=O)O)cc1NC/C=C(\C)CC/C=C(\C)CCC=C(C)C`, the Activity entry in [1] is “Toxic”. The inhibition amounted to 31% in data set [4], 0% in [6] and 50% in data set [7].
On to `CCCS(=O)(=O)Oc1ccc(C(=O)O)cc1NC/C=C(\C)CC/C=C(\C)CCC=C(C)C`, for which the inhibition in [5] is 36%; in [4], 14%; in data set [6], 3%; in data set [7], 93%.
The corresponding values for `COC(=O)c1ccc(OC)c(NC/C=C(\C)CC/C=C(\C)CCC=C(C)C)c1` are 29%, 0%, 68% and 100%.
Consider `CC(C)=CCC/C(C)=C/CC/C(C)=C/CC/C(C)=C/Cc1cc(C(=O)O)ccc1O`, for which the inhibition in data set [5] is 30% and 47%; in data set [4] it was 8% and 10%; in data set [6] it was 0%; in data set [7] it was 42% and 45%.
`CC(C)=CCC/C(C)=C/CC/C(C)=C/CNc1cccc(C(=O)O)c1`: the Activity result in data set [8] is reported as “Toxic”. The inhibition in [6] turned out to be 25%; in data set [7] it was 89%.
For `COc1ccc(C(=O)N[C@@H](Cc2ccccc2)[C@H](O)CNC2CC2)cc1NC/C=C(\C)CC/C=C(\C)CCC=C(C)C`, the inhibition in data set [2] was 34%; in data set [3], 63%; in data set [5], 28%; in [4] it was 10%.
For the molecule `CC(=O)Oc1ccc(C(=O)O)cc1C/C=C(\C)CC/C=C(\C)CC/C=C(\C)CCC=C(C)C`, the Activity entry in data set [1] is on record as “Toxic”. The inhibition came out at 24% in [4], 17% in data set [6] and 87% in [7].
For `COC(=O)c1ccnc(NC/C=C(\C)CC/C=C(\C)CCC=C(C)C)c1`, the values for the inhibition in data set [5], in data set [6] and in [7] were 0%, 70% and 100%, respectively.
On to `CC(C)=CCC/C(C)=C/CC/C(C)=C/Cc1cc(C(=O)O)ccc1O`, for which the inhibition in data set [6] is 5%; in data set [7] it was 100%.
Take `CCCOc1ccc(C(=O)OC)cc1NC/C=C(\C)CC/C=C(\C)CCC=C(C)C`: the inhibition in data set [5] amounted to 0%; in data set [4] it was 0%; in data set [6], 27%; in data set [7], 88%.
Regarding `CC(C)=CCC/C(C)=C/CC/C(C)=C/CNc1cc(C(=O)O)ccc1O`, the inhibition was found to be 0% in data set [5], 36% in data set [6] and 100% in data set [7].
`COC(=O)c1ccc2c(c1)N(C/C=C(\C)CC/C=C(\C)CCC=C(C)C)C(=O)CO2`: the inhibition in [5] turned out to be 29%; in [4], 0%; in [6], 22%; in data set [7], 59%.
In the case of `CC(C)C[C@H](NC(=O)[C@H](CC(N)=O)NC(=O)[C@@H](NC(=O)[C@@H](N)CCC(=O)O)C(C)C)[C@@H](O)C[C@@H](C)C(=O)N[C@@H](C)C(=O)N[C@@H](CCC(=O)O)C(=O)N[C@@H](Cc1ccccc1)C(=O)O` (H-EVN[LeuΨ(S-CHOHCH2)Ala]AEF-OH), the inhibition in data set [9] was 80%.

A word on the inhibition: it is the percentage by which the read-out fell short of the control.
